Measured values taken from article PMC9459842, “Chemical Profiling and Biological Activities of Pelargonium graveolens Essential Oils at Three Different Phenological Stages” (Plants, 2022).
Marks after values point to notes of the source that are not given here.

Legend:
FRAP antioxidant assay = type: biochemical; conditions: n = 3
Experimental: (§1) The antioxidant activity of PGEO was evaluated by using […] complementary methods, DPPH, FRAP, ABTS, and H2O2 assays, according to the previously published protocols. The results are expressed as the concentration of PGEO providing 50% inhibition (IC50) and calculated by plotting the inhibition degrees against the essential oil concentrations. Trolox and ascorbic acid were used as positive controls. The assays were carried out in triplicate, and the IC50 values were presented as means ± SD.

H2O2 antioxidant assay = type: biochemical; conditions: n = 3
Experimental: as §1

DPPH antioxidant assay = type: biochemical; conditions: n = 3
Experimental: as §1

ABTS antioxidant assay = type: biochemical; conditions: n = 3
Experimental: as §1

[1] = test system: Bacillus subtilis ATCC 6633; experiment: disc diffusion assay; type: cell-based; conditions: B. subtilis ATCC 6633; 50 μL of oil/well, chloramphenicol 30 µg; includes 6 mm well
Experimental: (§2) The antibacterial activity was evaluated against the following six bacterial strains representing Gram-positive and Gram-negative bacteria: Escherichia coli ATCC 25922, Proteus mirabilis ATCC 25933, Salmonella Typhimurium ATCC 700408, Bacillus subtilis ATCC 6633, Staphylococcus aureus ATCC 29213, and Listeria monocytogenes ATCC 13932. The tested bacterial strains were prepared by inoculating a loopful from the frozen stock (−20 °C) in Mueller–Hinton Agar (Biokar, Beauvais, France) and incubated at 37 °C for 24 h under an aerobic environment.
(§3) The primary screening of the antimicrobial activity of the studied samples was evaluated by the disc diffusion method according to the previously published investigation. Briefly, the culture suspension of each species was inoculated in Mueller–Hinton Agar (Biolife, Italiana, Milano-Italy). […] Chloramphenicol (30 µg) was used as a positive control for bacteria strains, while dimethylsulfoxide (DMSO) (10 µL; 5%) was used as a negative control. The plates were incubated at the following growth conditions; 37 °C for 24 h, 25 °C for 48 h, and 25 °C for 72 h for bacteria, yeast, and fungi, respectively. After incubation, the inhibitory diameters were measured in millimeters, and the results were expressed as means ± Standard Deviation of three replicates.

[2] = test system: Proteus mirabilis ATCC 25933; experiment: disc diffusion assay; type: cell-based; conditions: P. mirabilis ATCC 25933; 50 μL of oil/well, chloramphenicol 30 µg; includes 6 mm well
Experimental: as §2, §3

[3] = test system: Salmonella Typhimurium ATCC700408; experiment: disc diffusion assay; type: cell-based; conditions: S. Typhimurium ATCC700408; 50 μL of oil/well, chloramphenicol 30 µg; includes 6 mm well
Experimental: as §2, §3

[4] = test system: Listeria monocytogenes ATCC 13932; experiment: disc diffusion assay; type: cell-based; conditions: L. monocytogenes ATCC 13932; 50 μL of oil/well, chloramphenicol 30 µg; includes 6 mm well
Experimental: as §2, §3

[5] = test system: Escherchia coli ATCC 25922; experiment: disc diffusion assay; type: cell-based, Escherichia coli; conditions: E. coli ATCC 25922; 50 μL of oil/well, chloramphenicol 30 µg; includes 6 mm well
Experimental: as §2, §3

[6] = test system: carrageenan-induced edema; set-up: method as in PMID 12587692; conditions: 32, 64, and 96 mg/kg; cited from earlier work
monocytes = test system: monocytes; set-up: method as in PMID 9889172; conditions: in vitro; cited from earlier work
[7] = test system: rats treated with ethanol for the induction of gastric ulcers; set-up: method as in PMID 24466200; conditions: 50 mg/kg; cited from earlier work
diabetic animals = test system: diabetic animals; set-up: method as in PMID 28549291; conditions: daily doses 25, 50, and 100 mg/kg b.w.; cited from earlier work
[8] = test system: inflammatory responses by lipopolysaccharide (LPS) in mice; conditions: cited from earlier work
[9] = test system: occlusion of the middle cerebral artery in male rats; conditions: intraperitoneal 100 mg/kg, cited from earlier work
[10] = test system: catabolic and inflammatory pathways induced by IL-1β; set-up: method as in PMID 24455984; conditions: in vitro; cited from earlier work
[11] = test system: alloxan-induced diabetic mice; set-up: method as in doi:10.23893/1307-2080.APS.05522; conditions: 2 and 24 h after the treatment; cited from earlier work
COX-2 = test system: COX-2; set-up: method as in PMID 26721216; conditions: cited from earlier work

O=C1O[C@H]([C@@H](O)CO)C(O)=C1O [Ascorbic Acid, Ascorbic acid]
antioxidant activity IC50, FRAP (FRAP antioxidant assay): 31.47 ± 1.07 ^a μg/mL | antioxidant activity IC50, H2O2 (H2O2 antioxidant assay): 23.34 ± 0.03 ^a μg/mL | antioxidant activity IC50, DPPH (DPPH antioxidant assay): 15.13 ± 0.04 ^a μg/mL | antioxidant activity IC50, ABTS (ABTS antioxidant assay): 42.22 ± 0.05 ^a μg/mL

O=C(N[C@H](CO)[C@H](O)c1ccc([N+](=O)[O-])cc1)C(Cl)Cl [Chloramphenicol]
inhibitory diameter [1]: 15.87 ± 0.21 mm | inhibitory diameter [2]: 21.27 ± 0.21 mm | inhibitory diameter [3]: 13.17 ± 0.25 mm | inhibitory diameter [4]: 29.07 ± 0.58 mm | inhibitory diameter [5]: 22.47 ± 0.21 mm

Cc1c(C)c2c(c(C)c1O)CCC(C)(C(=O)O)O2 (stereo not shown) [Trolox]
antioxidant activity IC50, FRAP (FRAP antioxidant assay): 48.25 ± 0.05 ^b μg/mL | antioxidant activity IC50, DPPH (DPPH antioxidant assay): 24.31 ± 0.02 ^b μg/mL | antioxidant activity IC50, ABTS (ABTS antioxidant assay): 61.48 ± 1.32 ^b μg/mL

C=CC(C)(CCC=C(C)C)OC(C)=O (stereo not shown) [linalyl acetate]
carrageenan-induced edema [6]: remarkable reduction

CC1CCC(C(C)C)C(O)C1 (stereo not shown) [menthol]
production of IL-1, PGE2, and LTB4 (monocytes): inhibit the production of inflammation mediators | levels of IL-6 and TNF-α [7]: reduced the levels of IL-6 and TNF-α | glycosylated hemoglobin, blood glucose levels (diabetic animals): decreased glycosylated hemoglobin, blood glucose levels

CC1=CCC2CC1C2(C)C (stereo not drawn) [α-pinene]
synthesis of nitric oxide (NO), TNF-α, and IL-6 [8]: decrease the synthesis of nitric oxide (NO), TNF-α, and IL-6 | expression of IL-1 and TNF-α [9]: decreased | concentration of IL-6, NO, and malondialdehyde (MDA) ([9]; striatum, cortex, and hippocampus): decreased | expression of catabolic and inflammatory genes, activation of NF-κB and JNK [10]: strongly inhibits | fasting blood glucose levels [11]: reduce fasting blood glucose levels | COX-2 overexpression (COX-2): potent effect on COX-2 overexpression
